Data set [1] addresses T1, high affinity choline transporter (CHT) (Homo sapiens, UniProt Q9GZV3).
T1 construct: expressed in transfected cells; host or cells: HEK-293, lentiviral transduction, single-cell clone CHT-WT4
T1 sequence (Q9GZV3 1-580): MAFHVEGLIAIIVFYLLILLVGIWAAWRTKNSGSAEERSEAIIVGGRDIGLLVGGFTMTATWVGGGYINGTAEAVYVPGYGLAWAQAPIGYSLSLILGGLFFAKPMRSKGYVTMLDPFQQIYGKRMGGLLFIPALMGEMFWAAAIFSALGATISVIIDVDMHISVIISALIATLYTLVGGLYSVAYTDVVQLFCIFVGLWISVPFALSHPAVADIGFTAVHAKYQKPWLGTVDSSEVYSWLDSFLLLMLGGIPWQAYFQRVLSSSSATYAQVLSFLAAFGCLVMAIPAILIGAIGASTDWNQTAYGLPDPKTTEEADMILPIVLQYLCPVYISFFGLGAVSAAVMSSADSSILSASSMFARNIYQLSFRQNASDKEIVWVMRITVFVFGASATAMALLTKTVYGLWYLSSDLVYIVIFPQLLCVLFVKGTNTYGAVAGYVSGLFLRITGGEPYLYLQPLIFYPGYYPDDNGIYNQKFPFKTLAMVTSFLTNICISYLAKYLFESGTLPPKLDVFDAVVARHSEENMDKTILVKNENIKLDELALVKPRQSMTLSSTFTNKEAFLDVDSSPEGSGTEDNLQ
Nature of the data set: Radiometric [3H]Choline uptake assay (scintillation proximity) in HEK cells expressing CHT. It is filed as cell-based. As to conditions: 3H-choline uptake IC50 or EC50(M), PAM compounds; 10-point dose response; HEK293 CHT-WT4; n.d. = not detected. As for the experimental part:
Uptake of [^3H]Choline (American Radiochemicals; ART 0197; 1,000 Ci/vial; Specific Activity 60–90 Ci/mmol) was measured in HEK cells expressing the high affinity choline transporter (CHT), clone WT4. Cells were plated at 50,000 cells /well in 200 μL culture media on a PDL coated Cytostar-T 96 well plate (Perkin Elmer) 24 h prior to assay. On the day of assay, following two washes and a 30 min pre-incubation at 37°C in 50 μL Na(−) free buffer (0.54 mM KCl, 1.3 mM CaCl2, 0.53 mM MgCl2, 0.4 mM MgSO4, 0.37 mM KH2PO4, 240 mM Sucrose, 4.4 mM Tris-phosphate, 5.5 mM Glycine, 5.6 mM D-Glucose; pH 6.5 with KOH), 25 μL 4X control or test compounds in Na(−) buffer were added to the cells. […] Final DMSO concentration was 0.25%. Following a 30 min incubation at 37°C, 25 μL [^3H]Choline diluted to 320 nM (80 nM final concentration) was added in Na(+) buffer (0.54 mM KCl, 1.3 mM CaCl2, 0.53 mM MgCl2, 0.4 mM MgSO4, 0.37 mM KH2PO4, 138 mM NaCl, 0.28 mM Na2HPO4, 5.5 mM Glycine, 5.6 mM D-Glucose; pH 6.5 with KOH). Plates were sealed with TopSeals (Perkin Elmer) and incubated in darkness for 3 h at room temperature before reading using a Wallac Microbeta, 1 min/well.
(§1) A preponderance of literature precedent for measuring high affinity choline uptake (HACU) utilizes a radiometric assay to measure [^3H]Choline transport in preparations. […] A number of parameters were assessed in assay development including cell seeding density, time of assay post-seeding, plate coating, buffer composition, read time and choline concentration.

Another data set concerns SK-N-FI cell line. Nature of the data set: [3H]Choline uptake in untransformed SK-N-FI cell line. It is filed as cell-based. As to conditions: 1 μM HC-3, 10 μM STS. The source says:
(§2) Supplementary file Image1.JPEG: Supplementary Figure 1 [^3H] […] Click here for additional data file.

For another data set, the system named is SH-SY5Y cell line. Description: [3H]Choline uptake in untransformed SH-SY5Y cell line. It is filed as cell-based. Particulars: 1 μM HC-3, 10 μM STS.
Source text: as §2

The next data set has as its system SH-SY5Y cells. Nature of the data set: Radiometric CHT transport in SH-SY5Y cell backgrounds. The class given is cell-based. As to conditions: potentiation could not be demonstrated. As for the experimental part:
as §1

Another data set concerns the target T2, CHT (Homo sapiens, UniProt Q9GZV3).
T2 sequence (Q9GZV3 1-580): T1 sequence (Q9GZV3 1-580)
Nature of the data set: cell-based.

Usually EC50 stands for the midpoint of the concentration-response curve. Higher therefore signals a need for much substance.

The structures appear in SMILES notation.

Regarding `CN[C@@H]1C[C@H]2O[C@@](C)([C@@H]1OC)n1c3ccccc3c3c4c(c5c6ccccc6n2c5c31)C(=O)NC4` [STS, staurosporine], the EC50 in data set [1] is 1.7e-06 M; on CHT it was 507 nM. Also, the “Effect on [3H]Choline uptake” value in the data set on SK-N-FI cell line and in the data set on SH-SY5Y cell line was “No effect” throughout. Moreover, the “Potentiation of CHT transport in SH-SY5Y cell backgrounds” value with SH-SY5Y cells is given as “toxicity”.

The values are drawn from PMC5326799, “Discovery of Compounds that Positively Modulate the High Affinity Choline Transporter” (Frontiers in Molecular Neuroscience, 2017).
